According to BigSolDB 2.1:

CC(CN1c2ccccc2S(=O)(=O)c2ccccc21)N(C)C.Cl (centres undefined)
Details	solubility (mole fraction)
in DMF, 278.2 K	0.00381
in DMF, 283.2 K	0.00418
in DMF, 288.27 K	0.00448
in DMF, 293.18 K	0.00474
in DMF, 298.17 K	0.00514
in DMF, 303.19 K	0.00554
in DMF, 308.23 K	0.00601
in DMF, 313.17 K	0.00658
in DMF, 318.23 K	0.00716
in DMF, 323.18 K	0.00783
in NMP, 278.16 K	0.00641
in NMP, 283.2 K	0.00692
in NMP, 288.24 K	0.00747
in NMP, 293.16 K	0.00791
in NMP, 298.17 K	0.00843
in NMP, 308.17 K	0.00975
in NMP, 313.21 K	0.0104
in NMP, 318.23 K	0.0111
in NMP, 323.27 K	0.0119
in acetic acid, 293.16 K	0.00208
in acetic acid, 298.18 K	0.00277
in acetic acid, 303.18 K	0.00347
in acetic acid, 308.2 K	0.00433
in acetic acid, 313.17 K	0.00548
in acetic acid, 318.22 K	0.00689
in acetic acid, 328.23 K	0.01
in acetic acid, 333.19 K	0.0123
in acetic acid, 338.2 K	0.0149
in acetone, 278.2 K	0.000103
in acetone, 283.16 K	0.000124
in acetone, 288.16 K	0.00015
in acetone, 293.17 K	0.000177
in acetone, 298.18 K	0.000199
in acetone, 303.17 K	0.000216
in acetone, 308.21 K	0.000237
in acetone, 313.2 K	0.000258
in acetone, 318.18 K	0.000278
in acetone, 323.17 K	0.000298
in ethanol, 278.16 K	0.000269
in ethanol, 283.21 K	0.000296
in ethanol, 288.22 K	0.000322
in ethanol, 293.18 K	0.000365
in ethanol, 298.21 K	0.000419
in ethanol, 303.22 K	0.0005
in ethanol, 308.18 K	0.000589
in ethanol, 313.17 K	0.000686
in ethanol, 318.2 K	0.000829
in methanol, 278.17 K	0.000759
in methanol, 283.22 K	0.000925
in methanol, 288.19 K	0.00112
in methanol, 293.26 K	0.00137
in methanol, 298.17 K	0.00156
in methanol, 303.19 K	0.00185
in methanol, 308.21 K	0.00225
in methanol, 313.21 K	0.00284
in methanol, 318.18 K	0.0034
in water, 278.28 K	0.00136
in water, 283.27 K	0.00163
in water, 288.27 K	0.002
in water, 293.24 K	0.00246
in water, 298.18 K	0.00302
in water, 303.18 K	0.00379
in water, 308.16 K	0.00484
in water, 313.22 K	0.00625
